In patent US8357659B2, “Method of treating pain or itching with APETx2 peptide toxin” (priority 2008, dated 2013):

Assays:
heteromer ASIC2b+3 = target: T1, heteromer ASIC2b+3 (Rattus norvegicus, UniProt O35240+Q62962); details: cited from earlier work
T1 sequence (Q62962 1-563 isoform Q62962-2): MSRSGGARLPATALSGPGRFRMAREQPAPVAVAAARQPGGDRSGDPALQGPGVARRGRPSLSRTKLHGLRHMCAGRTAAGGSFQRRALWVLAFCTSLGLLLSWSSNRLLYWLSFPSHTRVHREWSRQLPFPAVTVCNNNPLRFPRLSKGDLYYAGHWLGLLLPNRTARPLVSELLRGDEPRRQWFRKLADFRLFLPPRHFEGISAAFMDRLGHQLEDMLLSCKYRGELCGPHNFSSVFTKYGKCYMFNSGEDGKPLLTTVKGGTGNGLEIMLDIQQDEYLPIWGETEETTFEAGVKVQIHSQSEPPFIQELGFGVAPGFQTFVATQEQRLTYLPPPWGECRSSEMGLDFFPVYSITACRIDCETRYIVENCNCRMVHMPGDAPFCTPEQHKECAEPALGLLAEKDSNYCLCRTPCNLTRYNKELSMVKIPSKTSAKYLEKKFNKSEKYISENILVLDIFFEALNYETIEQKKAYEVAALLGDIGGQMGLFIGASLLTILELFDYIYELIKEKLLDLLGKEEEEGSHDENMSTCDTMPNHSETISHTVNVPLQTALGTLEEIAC
T1 sequence (O35240 1-533): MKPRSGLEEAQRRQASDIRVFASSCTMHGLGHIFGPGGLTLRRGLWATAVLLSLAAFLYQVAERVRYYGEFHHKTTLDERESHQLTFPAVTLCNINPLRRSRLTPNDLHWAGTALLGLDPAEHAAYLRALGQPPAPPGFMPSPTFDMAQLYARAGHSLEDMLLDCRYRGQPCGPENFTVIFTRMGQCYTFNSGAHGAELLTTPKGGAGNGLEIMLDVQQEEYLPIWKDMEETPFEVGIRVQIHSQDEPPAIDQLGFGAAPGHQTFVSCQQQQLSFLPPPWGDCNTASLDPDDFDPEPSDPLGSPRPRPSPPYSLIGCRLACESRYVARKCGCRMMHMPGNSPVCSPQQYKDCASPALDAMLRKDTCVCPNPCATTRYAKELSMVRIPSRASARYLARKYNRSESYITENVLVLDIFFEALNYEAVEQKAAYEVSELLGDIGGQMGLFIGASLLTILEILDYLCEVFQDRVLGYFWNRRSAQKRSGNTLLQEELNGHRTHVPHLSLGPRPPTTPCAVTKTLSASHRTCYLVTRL

human ASIC3 channels = target: T2, human ASIC3 channels (Homo sapiens, UniProt Q9UHC3); experiment: Whole cell patch clamp of human ASIC3 in transfected F-11 cells; type: cell-based; details: APETx2 at 1 μM; acidification pH 8.0 to pH 7.0
T2 construct: expressed in transfected cells; host or cells: F-11 cells, vector pASIC3h-IRES-EGFP, JetPEI
T2 sequence (Q9UHC3 1-531): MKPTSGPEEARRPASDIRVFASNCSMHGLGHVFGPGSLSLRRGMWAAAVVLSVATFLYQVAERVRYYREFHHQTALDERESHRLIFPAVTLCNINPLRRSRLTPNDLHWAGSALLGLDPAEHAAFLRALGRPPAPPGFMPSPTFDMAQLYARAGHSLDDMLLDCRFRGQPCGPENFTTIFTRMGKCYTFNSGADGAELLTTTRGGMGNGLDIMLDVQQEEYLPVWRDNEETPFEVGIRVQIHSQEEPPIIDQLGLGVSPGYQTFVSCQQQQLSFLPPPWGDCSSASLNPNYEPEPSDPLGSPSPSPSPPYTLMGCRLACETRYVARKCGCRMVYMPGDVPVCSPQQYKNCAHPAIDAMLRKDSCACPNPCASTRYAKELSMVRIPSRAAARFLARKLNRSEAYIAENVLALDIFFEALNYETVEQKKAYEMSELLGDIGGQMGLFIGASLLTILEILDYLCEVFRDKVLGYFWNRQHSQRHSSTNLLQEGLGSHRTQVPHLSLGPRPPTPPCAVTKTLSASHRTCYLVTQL
Description: F-11 cells (refs. 44, 45, 46, 47]) were cultured in 5% of CO2 at a density of 50,000 cells per 35 mm Petri dish. The culture medium contained HAM F-12 medium (Invitrogen) supplemented with 15% foetal bovine serum (ICN Biomedicals), 1×HAT (sodium hypoxanthine, aminopterine and thymidine), 200 μg/ml of allo-4-hydroxy-L-proline (Sigma-Aldrich) and 1% antibiotics. One day after seeding, the cells were transfected with ASIC1a or ASIC3 DNAc (rat clones) using Lipofectamine™ (Invitrogen) according to the manufacturer's instructions using the vectors pCI-ASIC1ar+pIRES2-EGFP (ratio 1:2) or pCI-ASIC3r+pIRES2-EGFP (ratio 1:10) ([ref. 36]), quoted above). For the experiments concerning the human ASIC3 clone (refer to experiments on the effects of the APETx2 toxin on the human form of the ASIC3 channel), the cells were transfected with the DNAc of human ASIC3 using the transfection agent JetPEI (Polypus Transfection) according to the manufacturer's instructions with the aid of the vector pASIC3h-IRES-EGFP. […]
The whole cell configuration of the patch clamp method was used ([ref. 48]) in order to measure the membrane currents (imposed voltage) or the membrane potentials (imposed current). […] The data were sampled at 10 kHz, digitised using a Digidata 1322A A-D/D-A converter (Axon Instruments) and recorded on a hard disk using pClamp software (version 9.2.0.11, Axon Instruments). […]

peptide of 42 amino acids (SEQ ID NO: 3), three disulphide bonds, from sea anemone Anthopleura elegantissima; blocks ASIC3 [APETx2]
effect on the current of the heteromer ASIC2b+3 (heteromer ASIC2b+3): inhibits
amplitude of the human ASIC3 currents (human ASIC3 channels): significantly reduced
